Source: patent US11339144B2 (Navitor Pharmaceuticals, Inc., priority 2017, dated 2022)

Key:
[1] = molecular target: HA-GST-Rheb (GTP-γ-S loaded) activating mTORC1 (Homo sapiens (Human), UniProt Q15382); test: Rheb-dependent in vitro kinase assay (Rheb-IVK; LanthaScreen or Western readout); type: biochemical; conditions: Rheb-dependent in vitro kinase assay; read-out: IVK IC50
Rheb = Rheb (Homo sapiens (Human), UniProt Q15382); test: Affinity Selection Mass Spectrometry (ASMS); type: binding; conditions: affinity (R3/R0) in Affinity Selection Mass Spectrometry assay
Sequence of Rheb (Q15382 1-169 limits assumed): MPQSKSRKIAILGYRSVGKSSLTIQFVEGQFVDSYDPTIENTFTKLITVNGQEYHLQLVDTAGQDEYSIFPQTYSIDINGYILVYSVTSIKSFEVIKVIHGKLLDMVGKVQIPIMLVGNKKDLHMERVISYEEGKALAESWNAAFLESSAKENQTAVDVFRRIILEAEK
Outline: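 Human Rheb (60 μM) with GDP (180 μM) and each compound at 2 μM, protein-plus versus protein-minus, incubated 30 min at room temperature, then washed by 10 kDa ultrafiltration. Retained ligand was released with MeCN and detected by UPLC-Q-TOF MS.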

Sequence of HA-GST-Rheb (GTP-γ-S loaded) activating mTORC1 (Q15382 1-181): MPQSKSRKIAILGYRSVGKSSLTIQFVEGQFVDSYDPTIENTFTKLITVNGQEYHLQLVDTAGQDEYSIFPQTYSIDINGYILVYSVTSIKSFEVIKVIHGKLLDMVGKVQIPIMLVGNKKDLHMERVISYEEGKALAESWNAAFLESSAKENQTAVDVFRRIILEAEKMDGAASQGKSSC

Row | Structure (SMILES) | IC50 [1] [µM] | ASMS (R3/R0) (Rheb)
1 | Clc1ccc(COc2cc3nc(-c4ccncc4)[nH]c3c(Cl)c2Cl)cc1 [I-354, 6,7-dichloro-5-(4-chlorobenzyloxy)-2-(pyridin-4-yl)-1H-benzo[d]imidazole] | 10 to 100 | A (an affinity (R3/R0)>100%)
2 | OCC(O)c1nc2c(OCC3CCCCC3)c(Cl)c(Cl)cc2[nH]1 (stereo not shown) [I-325, 1-(5,6-dichloro-4-(cyclohexylmethoxy)-1H-benzo[d]imidazol-2-yl)ethane-1,2-diol] | 10 to 100 | B (an affinity (R3/R0) between 100% and 20%)
3 | NC(=O)C1CCCN(C(=O)c2cc3c(Sc4ccc(Cl)cc4)cc(Cl)cc3[nH]2)C1 (stereo not shown) [I-132] | > 100 | B (an affinity (R3/R0) between 100% and 20%)
4 | CN1CCCN(c2ccc(NC(=O)c3cc4c(Sc5ccc(Cl)cc5Cl)cc(Cl)c(Cl)c4[nH]3)cc2F)CC1 [I-32, 6,7-dichloro-4-(2,4-dichlorophenyl)sulfanyl-N-[3-fluoro-4-(4-methyl-1,4-diazepan-1-yl)phenyl]-1H-indole-2-carboxamide] | < 10 | A (an affinity (R3/R0)>100%)
5 | CC(C)(C)c1cccc(Sc2cc(Cl)cc3[nH]c(C(=O)O)cc23)c1 [I-65, 4-(3-tert-butylphenylthio)-6-chloro-1H-indole-2-carboxylic acid] | < 10 | B (an affinity (R3/R0) between 100% and 20%)
6 | OCc1cc2c(Oc3ccc(C4CCCCC4)cc3)cc(Cl)cc2[nH]1 [I-127, (6-chloro-4-(4-cyclohexylphenoxy)-1H-indol-2-yl)methanol] | < 10 | B (an affinity (R3/R0) between 100% and 20%)
7 | OCc1cc2c(F)cc(Oc3ccccc3)cc2[nH]1 [I-249, (4-fluoro-6-phenoxy-1H-indol-2-yl)methanol] | 10 to 100 | C (an affinity (R3/R0)<20%)
8 | OCc1cc2ccc(Sc3ccc(Cl)cc3)cc2n1Cc1nc[nH]n1 [I-185] | > 100 | C (an affinity (R3/R0)<20%)
9 | OCc1cc2c(Sc3ccc(F)c(F)c3)cc(Cl)cc2[nH]1 [I-152, (6-chloro-4-(3,4-difluorophenylthio)-1H-indol-2-yl)methanol] | 10 to 100 | B (an affinity (R3/R0) between 100% and 20%)
10 | CN1CCN(C(=O)c2ccc(-c3nc4cc(Cl)c(Cl)cc4[nH]3)cc2)CC1 [I-349] | > 100 | B (an affinity (R3/R0) between 100% and 20%)
11 | Clc1cc2nc(-c3ccnc(N4CCNCC4)c3)[nH]c2cc1Cl [I-346] | > 100 | A (an affinity (R3/R0)>100%)
12 | O=C(O)c1cc2c(Br)cc(Oc3ccccc3)cc2n1Cc1ccc(C(=O)N(CCO)CCO)cc1 [I-67, 1-(4-(bis(2-hydroxyethyl)carbamoyl)benzyl)-4-bromo-6-phenoxy-1H-indole-2-carboxylic acid] | 10 to 100 | C (an affinity (R3/R0)<20%)
13 | O=C(O)c1cc2c(Br)cc(Sc3ccc(Cl)c(Cl)c3)cc2n1Cc1ccc(C(=O)N2CCNCC2)cc1 [I-43] | > 100 | A (an affinity (R3/R0)>100%)
14 | CN(C)c1cc(-c2nc3cc(Cl)c(Cl)cc3[nH]2)ccn1 [I-351] | > 100 | A (an affinity (R3/R0)>100%)
15 | CN(C)C(=O)c1ccc(Cn2c(C(=O)O)cc3c(Br)cc(Sc4cccc(OC(F)(F)F)c4)cc32)cc1 [I-20, 4-bromo-1-(4-(dimethylcarbamoyl)benzyl)-6-(3-(trifluoromethoxy)phenylthio)-1H-indole-2-carboxylic acid] | < 10 | A (an affinity (R3/R0)>100%)
16 | OCc1ccc(Cn2c(CO)cc3c(Br)cc(Oc4ccccc4)cc32)cc1 [I-166] | > 100 | B (an affinity (R3/R0) between 100% and 20%)
17 | Cn1ccc2c(OC3CCNCC3)cccc21 [I-295] | > 100 | C (an affinity (R3/R0)<20%)
18 | Clc1ccc(Oc2cc(Cl)cc3[nH]ccc23)cc1 [I-204, 6-chloro-4-(4-chlorophenoxy)-1H-indole] | 10 to 100 | C (an affinity (R3/R0)<20%)
19 | Cc1ccc(Oc2cc(Cl)cc3[nH]c(CO)cc23)cc1C(F)(F)F [I-82, (6-Chloro-4-(4-methyl-3-(trifluoromethyl)phenoxy)-1H-indol-2-yl)methanol] | < 10 | B (an affinity (R3/R0) between 100% and 20%)
20 | CN1CCC(CNC(=O)c2cc3c(Sc4ccc(Cl)cc4Cl)cc(Cl)c(Cl)c3[nH]2)CC1 [I-35, 6,7-dichloro-4-(2,4-dichlorophenylthio)-N-((1-methylpiperidin-4-yl)methyl)-1H-indole-2-carboxamide] | < 10 | A (an affinity (R3/R0)>100%)
